26 compounds from patent US8217029B2, “Oxazolidinone antibiotics” (Actelion Pharmaceuticals Ltd, priority 2007, dated 2012) can be followed below.

≈ marks a conversion by molar mass, not a printed value.

For the assay, the system named is S aureus A798. Description: Minimal inhibitory concentration (MIC), microdilution method in cation-adjusted Mueller-Hinton Broth following NCCLS guidelines. It is filed as cell-based. Conditions: pH of test medium 7.2-7.3. As to the method:
These assays have been performed following the description given in “Methods for dilution Antimicrobial Susceptibility Tests for Bacteria that Grow Aerobically, 4th ed.; Approved standard: NCCLS Document M7-A4; National Committee for Clinical Laboratory Standards Villanova, Pa., USA, 1997”. Minimal inhibitory concentrations (MICs; mg/l) were determined in cation-adjusted Mueller-Hinton Broth by a microdilution method following NCCLS guidelines (National Committee for Clinical Laboratory Standards. Methods for Dilution Antimicrobial Susceptibility). The pH of the test medium was 7.2-7.3. All Example compounds were tested against several Gram positive and Gram negative bacteria.
On the technique in general: Dilution methods test growth across graded concentrations, often in twofold steps.
The term MIC denotes the smallest concentration in the dilution series that meets the test's criterion for growth inhibition. Turning to `COc1ccc2nccc(N3CC(CN(C)C[C@H]4CN(c5ccc6c(c5)OCCO6)C(=O)O4)C3)c2n1` [Example 118, (S)-3-(2,3-Dihydro-benzo[1,4]dioxin-6-yl)-5-({[1-(6-methoxy-[1,5]naphthyridin-4-yl)-azetidin-3-ylmethyl]-methyl-amino}-methyl)-oxazolidin-2-one], the MIC amounted to 0.25 µg/mL (≈ 0.509 µM). As for `COc1ccc2nccc(N3CCN(C[C@@H]4CN(c5ccc(C)c(C(F)(F)F)c5)C(=O)O4)CC3)c2n1` [Example 18, (R)-5-[4-(6-Methoxy-[1,5]naphthyridin-4-yl)-piperazin-1-ylmethyl]-3-(4-methyl-3-trifluoromethyl-phenyl)-oxazolidin-2-one], the MIC is ≤ 0.031 µg/mL. Same read-out and setting: the same measure for `COc1cnc2cccc(N3CC(NC[C@@H]4CN(c5ccc6c(c5)NC(=O)CS6)C(=O)O4)C3)c2c1` [Example 157, 6-((R)-5-{[1-(3-Methoxy-quinolin-5-yl)-azetidin-3-ylamino]-methyl}-2-oxo-oxazolidin-3-yl)-4H-benzo[1,4]thiazin-3-one]: ≤ 0.031 µg/mL.

Turning to `COc1ccc2nccc(N3CC[C@H](NCCC4CN(c5ccc6c(c5)NC(=O)CS6)C(=O)O4)C3)c2n1` (mixture of isomers) [Example 86, 6-((RS)-5-{2-[(S)-1-(6-Methoxy-[1,5]naphthyridin-4-yl)-pyrrolidin-3-ylamino]-ethyl}-2-oxo-oxazolidin-3-yl)-4H-benzo[1,4]thiazin-3-one], the MIC is ≤ 0.031 µg/mL. On the same count and under the same terms, the same measure for `COc1ccc2nccc(N3CC(N(C)C[C@@H]4CN(c5ccc6scnc6c5)C(=O)O4)C3)c2n1` [Example 146, (R)-3-Benzothiazol-5-yl-5-({[1-(6-methoxy-[1,5]naphthyridin-4-yl)-azetidin-3-yl]-methyl-amino}-methyl)-oxazolidin-2-one]: 0.063 µg/mL (≈ 0.132 µM); for `COc1ccc2nccc(N3CCC(C(=O)NC[C@@H]4CN(c5ccc6c(c5)OCCO6)C(=O)O4)C3)c2n1` (mixture of isomers) [Example 85, (RS)-1-(6-Methoxy-[1,5]naphthyridin-4-yl)-pyrrolidine-3-carboxylic acid [(R)-3-(2,3-dihydro-benzo[1,4]dioxin-6-yl)-2-oxo-oxazolidin-5-ylmethyl]-amide]: 0.25 µg/mL. For `COc1ccc2nccc(N3CC(CNC(=O)[C@@H]4CN(c5ccc6c(c5)OCCO6)C(=O)O4)C3)c2n1` [Example 2, (S)-3-(2,3-Dihydro-benzo[1,4]dioxin-6-yl)-2-oxo-oxazolidine-5-carboxylic acid[1-(6-methoxy-[1,5]naphthyridin-4-yl)-azetidin-3-ylmethyl]-amide], the “MIC S aureus A798” value came out at 4 µg/mL (≈ 8.14 µM).

As for `COc1ccc2nccc(N3CC(N(C)C[C@@H]4CN(c5ccc(Br)c(F)c5)C(=O)O4)C3)c2n1` [Example 141, (R)-3-(4-Bromo-3-fluoro-phenyl)-5-({[1-(6-methoxy-[1,5]naphthyridin-4-yl)-azetidin-3-yl]-methyl-amino}-methyl)-oxazolidin-2-one], the MIC was ≤ 0.031 µg/mL. Same read-out and setting: the value for `COc1ccc2nccc(N3CC(NC[C@@H]4CN(c5ccc(C)c(F)c5)C(=O)O4)C3)c2n1` [Example 50, (R)-3-(3-Fluoro-4-methyl-phenyl)-5-{[1-(6-methoxy-[1,5]naphthyridin-4-yl)-azetidin-3-ylamino]-methyl}-oxazolidin-2-one] was ≤ 0.031 µg/mL. Consider `COc1ccc2nccc(N3CC[C@@H]4CN(C[C@@H]5CN(c6ccc7c(c6)NC(=O)CS7)C(=O)O5)C[C@@H]43)c2n1` (relative stereo) [Example 91, 6-{{(R)-5-[(3aR*,6aR*)-1-(6-Methoxy-[1,5]naphthyridin-4-yl)-hexahydro-pyrrolo[3,4-b]pyrrol-5-yl]-methyl}-2-oxo-oxazolidin-3-yl}-4H-benzo[1,4]thiazin-3-one], for which the “MIC S aureus A798” value is “<=0.031 mg/l”. On to `N#Cc1ccc2nccc(N3CC(NC[C@@H]4CN(c5ccc6c(c5)NC(=O)CS6)C(=O)O4)C3)c2c1` [Example 161, 4-(3-{[(R)-2-oxo-3-(3-oxo-3,4-dihydro-2H-benzo[1,4]thiazin-6-yl)-oxazolidin-5-ylmethyl]amino}-azetidin-1-yl)-quinoline-6-carbonitrile], for which the MIC is ≤ 0.031 µg/mL. Still for that read-out and setting: the same measure for `COc1ccc2nccc(N3CC(N(C)C[C@@H]4CN(c5cccc(F)c5)C(=O)O4)C3)c2n1` [Example 147, (R)-3-(3-Fluoro-phenyl)-5-({[1-(6-methoxy-[1,5]naphthyridin-4-yl)-azetidin-3-yl]-methyl-amino}-methyl)-oxazolidin-2-one]: 0.25 µg/mL (≈ 0.571 µM); for `COc1ccc2nccc(N3CCN(C[C@H]4CN(c5ccc(C)c(F)c5)C(=O)O4)CC3)c2n1` [Example 38, (S)-3-(3-Fluoro-4-methyl-phenyl)-5-[4-(6-methoxy-[1,5]naphthyridin-4-yl)-piperazin-1-ylmethyl]-oxazolidin-2-one]: 0.063 µg/mL (≈ 0.14 µM); for `COc1ccc2nccc(N3CCC(NC[C@@H]4CN(c5ccc6c(c5)NC(=O)CO6)C(=O)O4)CC3)c2n1` [Example 120, 6-((R)-5-{[1-(6-Methoxy-[1,5]naphthyridin-4-yl)-piperidin-4-ylamino]-methyl}-2-oxo-oxazolidin-3-yl)-4H-benzo[1,4]oxazin-3-one]: ≤ 0.031 µg/mL. Same read-out and setting: the value for `COc1ccc2nccc(N3CC(N(C)C[C@@H]4CN(c5ccc(C)c(Br)c5)C(=O)O4)C3)c2n1` [Example 142, (R)-3-(3-Bromo-4-methyl-phenyl)-5-({[1-(6-methoxy-[1,5]naphthyridin-4-yl)-azetidin-3-yl]-methyl-amino}-methyl)-oxazolidin-2-one] was ≤ 0.031 µg/mL.

In turn, `COc1ccc2nccc(N3C[C@H]4CCN(C[C@@H]5CN(c6ccc7c(c6)OCCO7)C(=O)O5)[C@H]4C3)c2n1` (mixture of isomers) [Example 94, (R)-3-(2,3-Dihydro-benzo[1,4]dioxin-6-yl)-5-{[(3aR*,6aR*)-5-(6-methoxy-[1,5]naphthyridin-4-yl)-hexahydro-pyrrolo[3,4-b]pyrrol-1-yl]-methyl}-oxazolidin-2-one] returned a minimum inhibitory concentration (MIC) of 2 µg/mL. The same measure, in the same setting: the same measure for `COc1ccc2cccc(N3CC(NC[C@@H]4CN(c5ccc6c(c5)NC(=O)CS6)C(=O)O4)C3)c2n1` [Example 158, 6-((R)-5-{[1-(2-Methoxy-quinolin-8-yl)-azetidin-3-ylamino]-methyl}-2-oxo-oxazolidin-3-yl)-4H-benzo[1,4]thiazin-3-one]: ≤ 0.031 µg/mL.

As for `COc1ccc2ncc(F)c(N3CCC(N(C)C[C@@H]4CN(c5ccc6c(c5)NC(=O)CS6)C(=O)O4)CC3)c2n1` [Example 124, 6-[(R)-5-({[1-(3-Fluoro-6-methoxy-[1,5]naphthyridin-4-yl)-piperidin-4-yl]-methyl-amino}-methyl)-2-oxo-oxazolidin-3-yl]-4H-benzo[1,4]thiazin-3-one], the MIC is ≤ 0.031 µg/mL. The same measure, in the same setting: the same measure for `COc1ccc2nccc(N3CCN(C[C@@H]4CN(c5cccc(OC(F)(F)F)c5)C(=O)O4)CC3)c2n1` [Example 10, (R)-5-[4-(6-Methoxy-[1,5]naphthyridin-4-yl)-piperazin-1-ylmethyl]-3-(3-trifluoromethoxy-phenyl)-oxazolidin-2-one]: 0.25 µg/mL (≈ 0.497 µM); for `COc1ccc2nccc(N3CCN(C[C@@H]4CN(c5ccc6c(c5)OCO6)C(=O)O4)CC3)c2n1` [Example 35, (R)-3-Benzo[1,3]dioxol-5-yl-5-[4-(6-methoxy-[1,5]naphthyridin-4-yl)-piperazin-1-ylmethyl]-oxazolidin-2-one]: ≤ 0.031 µg/mL. On the same count and under the same terms, the value for `COc1ccc2nccc(N3C[C@H]4CCN(C[C@@H]5CN(c6ccc7c(c6)NC(=O)CS7)C(=O)O5)[C@H]4C3)c2n1` (mixture of isomers) [Example 93, 6-{(R)-5-{[(3aR*,6aR*)-5-(6-Methoxy-[1,5]naphthyridin-4-yl)-hexahydro-pyrrolo[3,4-b]pyrrol-1-yl]-methyl}-2-oxo-oxazolidin-3-yl}-4H-benzo[1,4]thiazin-3-one] was ≤ 0.031 µg/mL; that for `COc1ccc2nccc(N3CC(N(C)C[C@@H]4CN(c5ccccc5)C(=O)O4)C3)c2n1` [Example 133, (R)-5-({[1-(6-Methoxy-[1,5]naphthyridin-4-yl)-azetidin-3-yl]-methyl-amino}-methyl)-3-phenyl-oxazolidin-2-one] was 2 µg/mL (≈ 4.77 µM); that for `COc1ccc2nccc(N3CCC(O)(CNC[C@@H]4CN(c5ccc6c(c5)NC(=O)CS6)C(=O)O4)C3)c2n1` (mixture of isomers) [Example 129, 6-[(R)-5-({[(RS)-3-Hydroxy-1-(6-methoxy-[1,5]naphthyridin-4-yl)-pyrrolidin-3-ylmethyl]-amino}-methyl)-2-oxo-oxazolidin-3-yl]-4H-benzo[1,4]thiazin-3-one] was 0.063 µg/mL. On the same count and under the same terms, the same measure for `COc1ccc2ncc(F)c(N3CC(N(C)C[C@@H]4CN(c5ccc6c(c5)NC(=O)CO6)C(=O)O4)C3)c2n1` [Example 127, 6-[(R)-5-({[1-(3-Fluoro-6-methoxy-[1,5]naphthyridin-4-yl)-azetidin-3-yl]-methyl-amino}-methyl)-2-oxo-oxazolidin-3-yl]-4H-benzo[1,4]oxazin-3-one]: ≤ 0.031 µg/mL; for `COc1ccc2nccc(N3CC[C@@H]4CN(C(=O)[C@@H]5CN(c6ccc7c(c6)OCCO7)C(=O)O5)C[C@@H]43)c2n1` (mixture of isomers) [Example 92, (S)-3-(2,3-Dihydro-benzo[1,4]dioxin-6-yl)-5-[(3aR*,6aR*)-1-(6-methoxy-[1,5]naphthyridin-4-yl)-hexahydro-pyrrolo[3,4-b]pyrrole-5-carbonyl]-oxazolidin-2-one]: 0.25 µg/mL; for `COc1ccc2nccc(N3CCCN(C[C@@H]4CN(c5ccc6c(c5)NC(=O)CO6)C(=O)O4)CC3)c2n1` [Example 105, 6-{(R)-5-[4-(6-Methoxy-[1,5]naphthyridin-4-yl)-[1,4]diazepan-1-ylmethyl]-2-oxo-oxazolidin-3-yl}-4H-benzo[1,4]oxazin-3-one]: ≤ 0.031 µg/mL.
